Where a name gives a salt, the structure may show the parent alone.
Target: T1, human vasopressin V1b receptor (Homo sapiens, UniProt P47901)
T1 construct: expressed in transfected cells; host or cells: CHO-K1 (cell line hV1b-3H2_CHO), membrane preparation
T1 sequence (P47901 1-424): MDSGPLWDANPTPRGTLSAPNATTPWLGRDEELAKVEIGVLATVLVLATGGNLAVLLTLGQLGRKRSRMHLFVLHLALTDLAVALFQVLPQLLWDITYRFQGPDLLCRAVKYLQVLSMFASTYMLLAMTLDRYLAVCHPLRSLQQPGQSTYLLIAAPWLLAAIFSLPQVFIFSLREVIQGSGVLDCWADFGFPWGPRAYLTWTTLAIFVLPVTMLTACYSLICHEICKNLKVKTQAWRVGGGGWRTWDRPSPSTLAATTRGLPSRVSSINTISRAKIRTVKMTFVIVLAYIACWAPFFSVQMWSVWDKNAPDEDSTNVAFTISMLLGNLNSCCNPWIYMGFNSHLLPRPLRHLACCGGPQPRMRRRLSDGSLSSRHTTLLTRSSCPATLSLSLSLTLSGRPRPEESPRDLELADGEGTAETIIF
Assay: Vasopressin V1b receptor binding assay
Conditions: membranes from CHO-K1 cells with stably expressed human V1b receptors, displacement of 1.5 nM 3H-AVP
Experimental: Vasopressin V1b Receptor Binding Assay:
The test substances were dissolved in a concentration of 10^−2 M in DMSO (dimethyl sulfoxide) and further diluted to 5×10^−4 M to 5×10^−9 M in DMSO. This series of DMSO predilutions was diluted 1:10 with assay buffer. The substance concentration was again diluted 1:5 in the assay mixture (2% DMSO in the mixture).
The membrane pellet was again homogenized and centrifuged as described and then taken up in 50 mM Tris-HCl, pH 7.4, homogenized and stored in aliquots frozen in liquid nitrogen at −190° C.
The incubation buffer was: 50 mM Tris, 10 mM MgCl2, 0.1% BSA, pH 7.4.
The nonspecific binding was determined with 1 uM AVP (Bachem # H1780). All determinations were carried out as triplicate determinations. After incubation (60 minutes at room temperature), the free radioligand was removed by vacuum filtration (Skatron cell harvester 7000) through Whatman GF/B glass fiber filter mats, and the filters were transferred into scintillation vials. The liquid scintillation measurement took place in a Tricarb model 2000 or 2200CA instrument (Packard). Conversion of the measured cpm into dpm was carried out with the aid of a standard quench series.
The binding parameters were calculated by nonlinear regression in SAS.

For `COc1cc(CN2CCNCC2)ccc1C1(N2CCC[C@H]2C(=O)N(C)C)C(=O)N(S(=O)(=O)c2ccc(F)cc2)c2ccc(Cl)cc21` (stereo partly drawn) [Example 78, (S)-1-[5-Chloro-1-(4-fluorobenzenesulfonyl)-3-(2-methoxy-4-piperazin-1-ylmethyl-phenyl)-2-oxo-2,3-dihydro-1H-indol-3-yl]pyrrolidine-2-dimethylcarboxamide, trifluoroacetic acid salt], which Ki is on record?
Its Ki is less than 1 nM.

Which Ki does the source give for `COc1ccc(S(=O)(=O)N2C(=O)C(c3cc(CN(C)CCN(C)C)ccc3OC)(N3CCC[C@H]3C(=O)N(C)C)c3cc(Cl)ccc32)c(OC)c1` (stereo partly drawn) [Example 29, (S)-1-[5-Chloro-1-(2,4-dimethoxybenzenesulfonyl)-3-(5-{[(2-dimethylaminoethyl)-methylamino]methyl}-2-methoxyphenyl)-2-oxo-2,3-dihydro-1H-indol-3-yl]pyrrolidine-2-dimethylcarboxamide, trifluoroacetic acid salt] here?
Its Ki is less than 1 nM.

For `COc1ccc(S(=O)(=O)N2C(=O)C(c3cc(CN(C)CCCN(C)C)ccc3OC)(N3CCC[C@H]3C(=O)N(C)C)c3cc(Cl)ccc32)c(OC)c1` (stereo partly drawn) [Example 30, (S)-1-[5-Chloro-1-(2,4-dimethoxybenzenesulfonyl)-3-(5-{[(3-dimethylaminopropyl)-methylamino]methyl}-2-methoxyphenyl)-2-oxo-2,3-dihydro-1H-indol-3-yl]pyrrolidine-2-dimethylcarboxamide, trifluoroacetic acid salt], which Ki is on record?
Its Ki is less than 1 nM.

For “(S)-2-({5-Chloro-1-(2,4-dimethoxybenzenesulfonyl)-3-[2-methoxy-4-(4-methyl-piperazin-1-ylmethyl)phenyl]-2-oxo-2,3-dihydro-1H-indol-3-yl}methylamino)-N,N-dimethyl-propionamide [Example 15]”, which Ki is on record?
The Ki was less than 1 nM.

How did the Ki turn out when “(S)-1-[3-(4-Aminomethyl-2-methoxyphenyl)-5-chloro-1-(4-cyanobenzenesulfonyl)-2-oxo-2,3-dihydro-1H-indol-3-yl]pyrrolidine-2-dimethylcarboxamide, trifluoroacetic acid salt [Example 76]” was run?
The Ki was 1 to 10 nM.

How did the Ki turn out when `COCCN(C)Cc1ccc(C2(N3CCC[C@H]3C(=O)N(C)C)C(=O)N(S(=O)(=O)c3ccc(OC)cc3OC)c3ccc(Cl)cc32)c(OC)c1` (stereo partly drawn) [Example 31, (S)-1-[5-Chloro-1-(2,4-dimethoxybenzenesulfonyl)-3-(2-methoxy-4-{[(2-methoxy-ethyl)methylamino]methyl}phenyl)-2-oxo-2,3-dihydro-1H-indol-3-yl]pyrrolidine-2-dimethylcarboxamide] was run?
The Ki was 1 to 10 nM.

How did the Ki turn out when `COc1cc(CN(C)C)ccc1C1(N2CCC[C@H]2C(=O)N(C)C)C(=O)N(S(=O)(=O)c2ccc(C#N)cc2)c2ccc(Cl)cc21` (stereo partly drawn) [Example 72, (S)-1-[5-Chloro-1-(4-cyanobenzenesulfonyl)-3-(4-dimethylaminomethyl-2-methoxy-phenyl)-2-oxo-2,3-dihydro-1H-indol-3-yl]pyrrolidine-2-dimethylcarboxamide, trifluoroacetic acid salt] was run?
The Ki was 1 to 10 nM.

How did the Ki turn out when `COc1ccc(S(=O)(=O)N2C(=O)C(c3ccc(CN4CCN(C)CC4)cc3OC)(N3CCC[C@H]3C(=O)N(C)C)c3ccccc32)cc1` (stereo partly drawn) [Example 92, (S)-1-{1-(4-Methoxybenzenesulfonyl)-3-[2-methoxy-4-(4-methylpiperazin-1-yl-methyl)phenyl]-2-oxo-2,3-dihydro-1H-indol-3-yl}-pyrrolidine-2-carboxylic acid dimethylamide, trifluoroacetic acid salt] was run?
The Ki was 1 to 10 nM.

`COc1ccc(S(=O)(=O)N2C(=O)C(c3cc(CN4CCCCC4)ccc3OC)(N3CCC[C@H]3C(=O)N(C)C)c3cc(Cl)ccc32)cc1` (stereo partly drawn) [Example 19, (S)-1-[5-Chloro-1-(4-methoxybenzenesulfonyl)-3-(2-methoxy-5-piperidin-1-ylmethyl-phenyl)-2-oxo-2,3-dihydro-1H-indol-3-yl]pyrrolidine-2-dimethylcarboxamide, trifluoroacetic acid salt] was tested. Which Ki did it give?
Its Ki is less than 1 nM.

How did the Ki turn out when `COc1cc(CN2CCNCC2)ccc1C1(N2CCC[C@H]2C(=O)N(C)C)C(=O)N(S(=O)(=O)c2ccc(C#N)cc2)c2ccc(Cl)cc21` (stereo partly drawn) [Example 99, (S)-1-[5-Chloro-1-(4-cyanobenzenesulfonyl)-3-(2-methoxy-4-piperazin-1-ylmethyl-phenyl)-2-oxo-2,3-dihydro-1H-indol-3-yl]pyrrolidine-2-dimethylcarboxamide, trifluoroacetic acid salt] was run?
The Ki was less than 1 nM.

How did the Ki turn out when `COc1ccc(S(=O)(=O)N2C(=O)C(c3ccc(CN4CCN(C(C)=O)CC4)cc3OC)(N3CCC[C@H]3C(=O)N(C)C)c3cc(Cl)ccc32)c(OC)c1` (stereo partly drawn) [Example 11, (S)-1-[3-[4-(4-Acetylpiperazin-1-ylmethyl)-2-methoxyphenyl]-5-chloro-1-(2,4-dimethoxy-benzenesulfonyl)-2-oxo-2,3-dihydro-1H-indol-3-yl]pyrrolidine-2-dimethylcarboxamide] was run?
Its Ki is 10 to 100 nM.

Which Ki does the source give for `COc1ccc(S(=O)(=O)N2C(=O)C(c3cc(CN(C)C)ccc3OC)(N3CCC[C@H]3C(=O)N(C)C)c3cc(Cl)ccc32)cc1` (stereo partly drawn) [Example 17, (S)-1-[5-Chloro-3-(5-dimethylaminomethyl-2-methoxyphenyl)-1-(4-methoxy-benzene-sulfonyl)-2-oxo-2,3-dihydro-1H-indol-3-yl]pyrrolidine-2-dimethylcarboxamide, trifluoroacetic acid salt] here?
The Ki was less than 1 nM.

`COc1ccc(S(=O)(=O)N2C(=O)C(c3cc(CN4CCCC4)ccc3OC)(N3CCC[C@H]3C(=O)N(C)C)c3cc(Cl)ccc32)cc1` (stereo partly drawn) [Example 18, (S)-1-[5-Chloro-1-(4-methoxybenzenesulfonyl)-3-(2-methoxy-5-pyrrolidin-1-yl-methylphenyl)-2-oxo-2,3-dihydro-1H-indol-3-yl]pyrrolidine-2-dimethylcarboxamide, trifluoroacetic acid salt] was tested. Which Ki did it give?
Its Ki is less than 1 nM.

For `COc1ccc(S(=O)(=O)N2C(=O)C(c3cccc(CN(C)C)c3)(N3C[C@H](O)C[C@H]3C(=O)N(C)C)c3cc(Cl)ccc32)c(OC)c1` (single isomer, unassigned) [Example 16], which Ki is on record?
Its Ki is 1 to 10 nM.

For `COc1ccc(S(=O)(=O)N2C(=O)C(c3cc(CN4CCN(C)CC4)ccc3OC)(N3CCC[C@H]3C(=O)N(C)C)c3cc(Cl)ccc32)c(OC)c1` (stereo partly drawn) [Example 27, (S)-1-{5-Chloro-1-(2,4-dimethoxybenzenesulfonyl)-3-[2-methoxy-5-(4-methyl-piperazin-1-ylmethyl)phenyl]-2-oxo-2,3-dihydro-1H-indol-3-yl}pyrrolidine-2-dimethylcarboxamide, trifluoroacetic acid salt], which Ki is on record?
Its Ki is less than 1 nM.

`COc1ccc(S(=O)(=O)N2C(=O)C(c3ccc(CN(C)C)cc3OC)(N3CCC[C@H]3C(=O)N(C)C)c3ccccc32)cc1` (stereo partly drawn) [Example 90, (S)-1-[3-(4-Dimethylaminomethyl-2-methoxyphenyl)-1-(4-methoxybenzenesulfonyl)-2-oxo-2,3-dihydro-1H-indol-3-yl]pyrrolidine-2-dimethylcarboxamide, trifluoroacetic acid salt] was tested. Which Ki did it give?
The Ki was 10 to 100 nM.

With `COc1ccc(S(=O)(=O)N2C(=O)C(c3ccc(CN4CCOCC4)cc3OC)(N3CCC[C@H]3C(=O)N(C)C)c3cc(Cl)ccc32)c(OC)c1` (single isomer, unassigned) [Example 10] as the compound, how does the Ki read?
The Ki was 10 to 100 nM.

For `COc1ccc(S(=O)(=O)N2C(=O)C(c3ccc(CN4CCCCC4)cc3OC)(N3CCC[C@H]3C(=O)N(C)C)c3cc(Cl)ccc32)c(OC)c1` (single isomer, unassigned) [Example 8], which Ki is on record?
The Ki was 1 to 10 nM.

`COc1ccc(CN(C)C)cc1C1(N2CCC[C@H]2C(=O)N(C)C)C(=O)N(S(=O)(=O)c2ccc(F)cc2)c2ccc(Cl)cc21` (stereo partly drawn) [Example 98, (S)-1-[5-Chloro-3-(5-dimethylaminomethyl-2-methoxyphenyl)-1-(4-fluorobenzene-sulfonyl)-2-oxo-2,3-dihydro-1H-indol-3-yl]pyrrolidine-2-dimethylcarboxamide, trifluoroacetic acid salt] was tested. Which Ki did it give?
Its Ki is 1 to 10 nM.

Which Ki does the source give for `COc1ccc(S(=O)(=O)N2C(=O)C(c3cc(CN(C)CCCN(C)C)ccc3OC)(N3CCC[C@H]3C(=O)N(C)C)c3cc(Cl)ccc32)cc1` (stereo partly drawn) [Example 23, (S)-1-[5-Chloro-3-(5-{[(3-dimethylaminopropyl)methylamino]methyl}-2-methoxy-phenyl)-1-(4-methoxybenzenesulfonyl)-2-oxo-2,3-dihydro-1H-indol-3-yl]pyrrolidine-2-dimethylcarboxamide, trifluoroacetic acid salt] here?
The Ki was less than 1 nM.

With `CCN(CC)Cc1ccc(C2(N3CCC[C@H]3C(=O)N(C)C)C(=O)N(S(=O)(=O)c3ccc(OC)cc3)c3ccc(Cl)cc32)c(OC)c1` (stereo partly drawn) [Example 86, (S)-1-[5-Chloro-3-(4-diethylaminomethyl-2-methoxyphenyl)-1-(4-methoxybenzene-sulfonyl)-2-oxo-2,3-dihydro-1H-indol-3-yl]pyrrolidine-2-dimethylcarboxamide, trifluoroacetic acid salt] as the compound, how does the Ki read?
The Ki was less than 1 nM.

Reference: US8691815B2, “Substituted oxindole derivatives, drugs containing said derivatives and the use thereof” (AbbVie Deutschland GmbH & Co. KG, priority 2005, dated 2014)
